Test results: patent US10058550B2, “Methods of treating heart failure” (priority 2015, dated 2018)

Molecular target: human APJ receptor (Homo sapiens (Human), UniProt P35414)
Assay: biochemical
Type: biochemical
Conditions: read-out: Activity hAPJ SPA EC50 IP
Method in brief: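 Agonist-stimulated [35S]GTPγS (0.2 nM) binding was read by SPA after 90 min at room temperature. Buffer: 20 mM HEPES pH 7.5 with 5 mM MgCl2, 200 mM NaCl, 3 μM GDP, 0.1% BSA; membranes were from a stable human APJ CHO line. EC50 values are averages of independent runs, fitted by non-linear regression.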

Sequence of human APJ receptor (P35414 whole entry): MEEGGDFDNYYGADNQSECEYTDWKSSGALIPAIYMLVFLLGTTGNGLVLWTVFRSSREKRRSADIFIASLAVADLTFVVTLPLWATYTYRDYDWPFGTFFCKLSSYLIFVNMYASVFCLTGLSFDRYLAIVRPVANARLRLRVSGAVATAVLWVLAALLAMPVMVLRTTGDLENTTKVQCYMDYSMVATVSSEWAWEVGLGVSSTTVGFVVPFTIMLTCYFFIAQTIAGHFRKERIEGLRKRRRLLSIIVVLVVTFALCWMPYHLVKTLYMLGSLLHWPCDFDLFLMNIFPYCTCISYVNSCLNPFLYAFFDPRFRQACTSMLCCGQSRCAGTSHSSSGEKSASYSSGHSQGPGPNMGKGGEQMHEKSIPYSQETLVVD

Row | Compound | EC50
1 | COc1cccc(OC)c1-n1c(NS(=O)(=O)[C@@H](C)[C@H](OC)c2ncc(Cl)cn2)nnc1-c1cccc(C)n1 [Example 88.0, (1R,2S)-1-(5-chloropyrimidin-2-yl)-N-(4-(2,6-dimethoxyphenyl)-5-(6-methylpyridin-2-yl)-4H-1,2,4-triazol-3-yl)-1-methoxypropane-2-sulfonamide] | 0.37 nM
2 | COc1cccc(OC)c1-n1c(NS(=O)(=O)[C@H](C)[C@@H](OC)c2ncc(Cl)cn2)nnc1-c1cccc(C)n1 [Example 89.0, (1S,2R)-1-(5-chloropyrimidin-2-yl)-N-(4-(2,6-dimethoxyphenyl)-5-(6-methylpyridin-2-yl)-4H-1,2,4-triazol-3-yl)-1-methoxypropane-2-sulfonamide] | 11 nM
3 | COc1ncnc(OC)c1-n1c(NS(=O)(=O)[C@@H](C)[C@H](OC)c2ncc(C)cn2)nnc1-c1cccc(C)n1 [Example 90.0, (1R,2S)-N-(4-(4,6-dimethoxypyrimidin-5-yl)-5-(6-methylpyridin-2-yl)-4H-1,2,4-triazol-3-yl)-1-methoxy-1-(5-methylpyrimidin-2-yl)propane-2-sulfonamide] | 2.4 nM
4 | COc1cccc(-c2nnc(NS(=O)(=O)C(C)C)n2-c2c(OC)cccc2OC)n1 [Example 100.0, N-(4-(2,6-dimethoxyphenyl)-5-(6-methoxypyridin-2-yl)-4H-1,2,4-triazol-3-yl)propane-2-sulfonamide] | 110 nM
5 | COc1cc(-c2nnc(NS(=O)(=O)[C@@H](C)[C@H](OC)c3ncc(C)cn3)n2-c2c(OC)cccc2OC)ccn1 [Example 101.0, (1R,2S)-N-(4-(2,6-dimethoxyphenyl)-5-(2-methoxypyridin-4-yl)-4H-1,2,4-triazol-3-yl)-1-methoxy-1-(5-methylpyrimidin-2-yl)propane-2-sulfonamide] | 7 nM
6 | COc1cccc(OC)c1-n1c(NS(=O)(=O)[C@@H](C)[C@H](OC)c2ncc(C)cn2)nnc1-c1ccncc1 [Example 102.0, (1R,2S)-N-(4-(2,6-dimethoxyphenyl)-5-(pyridin-4-yl)-4H-1,2,4-triazol-3-yl)-1-methoxy-1-(5-methylpyrimidin-2-yl)propane-2-sulfonamide] | 18 nM
7 | COc1cccc(OC)c1-n1c(NS(=O)(=O)[C@@H](C)[C@H](OC)c2ncc(C)cn2)nnc1-c1cccc(C)n1 [Example 103.0, (1R,2S)-N-(4-(2,6-dimethoxyphenyl)-5-(6-methylpyridin-2-yl)-4H-1,2,4-triazol-3-yl)-1-methoxy-1-(5-methylpyrimidin-2-yl)propane-2-sulfonamide] | 0.51 nM
8 | COc1cccc(OC)c1-n1c(NS(=O)(=O)[C@@H](C)[C@H](OC)c2ncc(C)cn2)nnc1-c1ccnc(C)c1 [Example 104.0, (1R,2S)-N-(4-(2,6-dimethoxyphenyl)-5-(2-methylpyridin-4-yl)-4H-1,2,4-triazol-3-yl)-1-methoxy-1-(5-methylpyrimidin-2-yl)propane-2-sulfonamide] | 2.4 nM
9 | CCOc1cccc(-c2nnc(NS(=O)(=O)[C@@H](C)[C@H](C)c3ncc(F)cn3)n2-c2c(OC)cccc2OC)n1 [Example 161.0, (2S,3R)-N-(4-(2,6-dimethoxyphenyl)-5-(6-ethoxy-2-pyridinyl)-4H-1,2,4-triazol-3-yl)-3-(5-fluoro-2-pyrimidinyl)-2-butanesulfonamide] | 0.062 nM
10 | COc1cccc(OC)c1-n1c(NS(=O)(=O)[C@@H](C)[C@H](C)c2ncc(F)cn2)nnc1-c1cccc(=O)[nH]1 [Example 168.0, (2S,3R)-N-(4-(2,6-dimethoxyphenyl)-5-(6-oxo-1,6-dihydro-2-pyridinyl)-4H-1,2,4-triazol-3-yl)-3-(5-fluoro-2-pyrimidinyl)-2-butanesulfonamide] | 110 nM
11 | CCOc1cccc(-c2nnc(NS(=O)(=O)[C@@H](C)[C@H](OC)c3ncc(C)cn3)n2-c2c(OC)cccc2OC)n1 [Example 172.0, (1R,2S)-N-(4-(2,6-dimethoxyphenyl)-5-(6-ethoxypyridin-2-yl)-4H-1,2,4-triazol-3-yl)-1-methoxy-1-(5-methylpyrimidin-2-yl)propane-2-sulfonamide] | 0.065 nM
12 | CCc1cccc(-c2nnc(NS(=O)(=O)[C@@H](C)[C@H](OC)c3ncc(C)cn3)n2-c2c(OC)cccc2OC)n1 [Example 174.0, (1R,2S)-N-(4-(2,6-dimethoxyphenyl)-5-(6-ethylpyridin-2-yl)-4H-1,2,4-triazol-3-yl)-1-methoxy-1-(5-methylpyrimidin-2-yl)propane-2-sulfonamide] | 0.2 nM
13 | CCc1cccc(-c2nnc(NS(=O)(=O)[C@@H](C)[C@H](O)c3ncc(C)cn3)n2-c2c(OC)cccc2OC)n1 [Example 175.0, (1R,2S)-N-(4-(2,6-dimethoxyphenyl)-5-(6-ethylpyridin-2-yl)-4H-1,2,4-triazol-3-yl)-1-hydroxy-1-(5-methylpyrimidin-2-yl)propane-2-sulfonamide] | 0.39 nM
14 | CCc1cccc(-c2nnc(NS(=O)(=O)[C@@H](C)[C@H](C)c3ncc(C)cn3)n2-c2c(OC)cccc2OC)n1 [Example 176.0, (2S,3R)-N-(4-(2,6-dimethoxyphenyl)-5-(6-ethylpyridin-2-yl)-4H-1,2,4-triazol-3-yl)-3-(5-methylpyrimidin-2-yl)butane-2-sulfonamide] | 0.15 nM
15 | COc1cc(C)cc(-c2nnc(NS(=O)(=O)[C@@H](C)[C@H](C)c3ncc(F)cn3)n2-c2c(OC)cccc2OC)n1 [Example 177.0, (2S,3R)-N-(4-(2,6-dimethoxyphenyl)-5-(6-methoxy-4-methylpyridin-2-yl)-4H-1,2,4-triazol-3-yl)-3-(5-fluoropyrimidin-2-yl)butane-2-sulfonamide] | 0.12 nM
16 | COc1cc(C)cc(-c2nnc(NS(=O)(=O)[C@@H](C)[C@H](C)c3ncc(C)cn3)n2-c2c(OC)cccc2OC)n1 [Example 178.0, (2S,3R)-N-(4-(2,6-dimethoxyphenyl)-5-(6-methoxy-4-methylpyridin-2-yl)-4H-1,2,4-triazol-3-yl)-3-(5-methylpyrimidin-2-yl)butane-2-sulfonamide] | 0.12 nM
17 | COc1cc(C)cc(-c2nnc(NS(=O)(=O)[C@@H](C)[C@H](OC)c3ncc(C)cn3)n2-c2c(OC)cccc2OC)n1 [Example 179.0, (1R,2S)-N-(4-(2,6-dimethoxyphenyl)-5-(6-methoxy-4-methylpyridin-2-yl)-4H-1,2,4-triazol-3-yl)-1-methoxy-1-(5-methylpyrimidin-2-yl)propane-2-sulfonamide] | 4.8 nM
18 | CCOc1cccc(-c2nnc(NS(=O)(=O)[C@@H](C)[C@H](C)c3ncc(C)cn3)n2-c2c(OC)cccc2OC)n1 [Example 180.0, (2S,3R)-N-(4-(2,6-dimethoxyphenyl)-5-(6-ethoxypyridin-2-yl)-4H-1,2,4-triazol-3-yl)-3-(5-methylpyrimidin-2-yl)butane-2-sulfonamide] | 0.068 nM
19 | COc1cccc(OC)c1-n1c(NS(=O)(=O)CCc2ccc(F)cc2C#N)nnc1-c1cncc(Cl)c1 [Example 181.0, N-(5-(5-chloro-3-pyridinyl)-4-(2,6-dimethoxyphenyl)-4H-1,2,4-triazol-3-yl)-2-(2-cyano-4-fluorophenyl)ethanesulfonamide] | 12 nM
20 | COc1cccc(OC)c1-n1c(NS(=O)(=O)[C@@H](C)[C@H](C)c2ncc(F)cn2)nnc1-c1cccc(OCC(F)(F)F)n1 [Example 185.0, (2S,3R)-N-(4-(2,6-dimethoxyphenyl)-5-(6-(2,2,2-trifluoroethoxy)pyridin-2-yl)-4H-1,2,4-triazol-3-yl)-3-(5-fluoropyrimidin-2-yl)butane-2-sulfonamide] | 0.12 nM
21 | COc1cccc(OC)c1-n1c(NS(=O)(=O)[C@@H](C)[C@H](C)c2ncc(F)cn2)nnc1-c1cccc(OCCO)n1 [Example 186.0, (2S,3R)-N-(4-(2,6-dimethoxyphenyl)-5-(6-(2-hydroxyethoxy)pyridin-2-yl)-4H-1,2,4-triazol-3-yl)-3-(5-fluoropyrimidin-2-yl)butane-2-sulfonamide] | 0.12 nM
22 | COc1cccc(OC)c1-n1c(NS(=O)(=O)[C@@H](C)[C@H](OC)c2ncc(C)cn2)nnc1-c1cccc(OCC(F)(F)F)n1 [Example 187.0, (1R,2S)-N-(4-(2,6-dimethoxyphenyl)-5-(6-(2,2,2-trifluoroethoxy)pyridin-2-yl)-4H-1,2,4-triazol-3-yl)-1-methoxy-1-(5-methylpyrimidin-2-yl)propane-2-sulfonamide] | 0.14 nM
23 | COc1cccc(OC)c1-n1c(NS(=O)(=O)[C@@H](C)[C@H](OC)c2ncc(C)cn2)nnc1-c1cccc(OCCO)n1 [Example 188.0, (1R,2S)-N-(4-(2,6-dimethoxyphenyl)-5-(6-(2-hydroxyethoxy)pyridin-2-yl)-4H-1,2,4-triazol-3-yl)-1-methoxy-1-(5-methylpyrimidin-2-yl)propane-2-sulfonamide] | 0.96 nM
24 | COc1cccc(OC)c1-n1c(NS(=O)(=O)[C@@H](C)[C@H](C)c2ncc(F)cn2)nnc1-c1cccc(OCC(C)(C)O)n1 [Example 192.0, (2S,3R)-N-(4-(2,6-dimethoxyphenyl)-5-(6-(2-hydroxy-2-methylpropoxy)pyridin-2-yl)-4H-1,2,4-triazol-3-yl)-3-(5-fluoropyrimidin-2-yl)butane-2-sulfonamide] | 260 nM
25 | COc1cccc(OC)c1-n1c(NS(=O)(=O)[C@@H](C)[C@H](OC)c2ncc(C)cn2)nnc1-c1cccc(OCC(C)(C)O)n1 [Example 193.0, (1R,2S)-N-(4-(2,6-dimethoxyphenyl)-5-(6-(2-hydroxy-2-methylpropoxy)pyridin-2-yl)-4H-1,2,4-triazol-3-yl)-1-methoxy-1-(5-methylpyrimidin-2-yl)propane-2-sulfonamide] | 61 nM
26 | COc1cccc(OC)c1-n1c(NS(=O)(=O)[C@@H](C)[C@H](C)c2ncc(F)cn2)nnc1-c1cccc(OCC(O)(C(F)(F)F)C(F)(F)F)n1 [Example 194.0, (2S,3R)-N-(4-(2,6-dimethoxyphenyl)-5-(6-(3,3,3-trifluoro-2-hydroxy-2-(trifluoromethyl)propoxy)pyridin-2-yl)-4H-1,2,4-triazol-3-yl)-3-(5-fluoropyrimidin-2-yl)butane-2-sulfonamide] | 36 nM
